Where two headings read alike, the source gives them in different places.
Columns and labels:
EGFR (L858R T790M C797S) = molecular target: T1, EGFR (L858R T790M C797S) (Homo sapiens, UniProt P00533, C797S/L858R/T790M); experiment: Biochemical EGFR inhibition assay (Caliper mobility shift), EGFR LRTMCS mutant; details: inhibitory activity against EGFR LRTMCS mutant; apparent IC50; read-out: Ext Enz LRTMCS
T1 construct: purchased SignalChem E10-122VG
Method in brief: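 Caliper mobility shift read-out: product and substrate peptides separated by electrophoresis and quantified. Reactions at 25° C. taken to 10–20% peptide phosphorylation, quenched with 35 mM EDTA. Apparent IC50 from percent activity vs log [compound].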

[1] = system: phosphorylation of EGFR (Tyr1068) in NCI-H1975 cell line that harbors the EGFR L858R T790M mutations; experiment: NCI-H1975 pEGFR AlphaLISA assay; format: cell-based; details: 4-5 hours incubation, read-out: Ext pEGFR H1975
Method in brief: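 NCI-H1975 cells (EGFR L858R/T790M) seeded overnight, then treated with compound for 4-5 h at 37 °C/5% CO2. After lysis, p-EGFR (Tyr1068) quantified by AlphaLISA SureFire Ultra with acceptor then donor beads; IC50 fitted from percent inhibition versus log concentration.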

[2] = inhibition of phosphorylation of mutant EGFR in NCI-H1975 cells
[3] = Homo sapiens, NCI-H1975, inhibition of phosphorylation of mutant EGFR in NCI-H1975 cells

Row | IC50 (EGFR (L858R T790M C797S)) [nM] | IC50 [1, 2] [nM] | IC50 [1, 3] [nM] | Compound
1 | ≤ 15 | ≤ 10 |  | CO[C@@H]1[C@H](O)CN(c2nccc(Nc3cc4c(C(C)C)ccc(N5CC(CS(C)(=O)=O)C5)c4cn3)n2)CC1(F)F (single isomer, unassigned) [Compound 291, (3R,4R)-5,5-difluoro-1-[4-({8-[3-(methanesulfonylmethyl)azetidin-1-yl]-5-(propan-2-yl)isoquinolin-3-yl}amino)pyrimidin-2-yl]-4-methoxypiperidin-3-ol or (3S,4S)-5,5-difluoro-1-[4-({8-[3-(methanesulfonylmethyl)azetidin-1-yl]-5-(propan-2-yl)isoquinolin-3-yl}amino)pyrimidin-2-yl]-4-methoxypiperidin-3-ol]
2 | ≤ 15 |  | 10.1 to 20 | CN(C)CCS(=O)(=O)CC1CN(c2cccc3cc(Nc4ccnc(N5C[C@@H](F)[C@@H](O)C(C)(C)C5)n4)ncc23)C1 (single isomer, unassigned) [Compound 192, (4S,5R)-1-(4-{[8-(3-{[2-(dimethylamino)ethanesulfonyl]methyl}azetidin-1-yl)isoquinolin-3-yl]amino}pyrimidin-2-yl)-5-fluoro-3,3-dimethylpiperidin-4-ol or (4R,5S)-1-(4-{[8-(3-{[2-(dimethylamino)ethanesulfonyl]methyl}azetidin-1-yl)isoquinolin-3-yl]amino}pyrimidin-2-yl)-5-fluoro-3,3-dimethylpiperidin-4-ol]
3 | ≤ 15 |  | ≤ 10 | CC(C)c1cnc(N2C[C@H](CS(C)(=O)=O)[C@H]2C)c2cnc(Nc3ccnc(N4CC[C@@H](OCC(C)(C)O)[C@@H](F)C4)n3)cc12 [Compound 260, 1-{[(3S,4R)-3-fluoro-1-[4-({8-[(2R,3S)-3-(methanesulfonylmethyl)-2-methylazetidin-1-yl]-5-(propan-2-yl)-2,7-naphthyridin-3-yl}amino)pyrimidin-2-yl]piperidin-4-yl]oxy}-2-methylpropan-2-ol]
4 | 15.1 to 20 | 10.1 to 20 |  | (R)-methyl({1-[3-({2-[(3R,4S)-3-fluoro-4-methoxypiperidin-1-yl]pyrimidin-4-yl}amino)-5-(propan-2-yl)isoquinolin-8-yl]azetidin-3-yl}methyl)imino-λ^6-sulfanone or (S)-methyl({1-[3-({2-[(3R,4S)-3-fluoro-4-methoxypiperidin-1-yl]pyrimidin-4-yl}amino)-5-(propan-2-yl)isoquinolin-8-yl]azetidin-3-yl}methyl)imino-λ^6-sulfanone [Compound 274]
5 | ≤ 15 |  | ≤ 10 | C[C@@H]1[C@@H](CS(C)(=O)=O)CN1c1ccc(F)c2cc(Nc3ccnc(N4C[C@H](F)[C@H](O)C(C)(C)C4)n3)ncc12 (single isomer, unassigned) [Compound 83, (4S,5R)-5-fluoro-1-[4-({5-fluoro-8-[(2R,3S)-3-(methanesulfonylmethyl)-2-methylazetidin-1-yl]isoquinolin-3-yl}amino)pyrimidin-2-yl]-3,3-dimethylpiperidin-4-ol or (4R,5S)-5-fluoro-1-[4-({5-fluoro-8-[(2R,3S)-3-(methanesulfonylmethyl)-2-methylazetidin-1-yl]isoquinolin-3-yl}amino)pyrimidin-2-yl]-3,3-dimethylpiperidin-4-ol]
6 | 15.1 to 20 |  | 10.1 to 20 | CO[C@H]1CCN(c2nccc(Nc3cc4c(C(C)C)ccc(N5CC(CS(C)(=O)=O)C5)c4cn3)n2)CC1(F)F (single isomer, unassigned) [Compound 158]
7 | ≤ 15 |  | ≤ 10 | CCS(=O)(=O)C[C@@H]1CN(c2ncc(C(C)C)c3cc(Nc4ccnc(N5CC[C@@H](O)[C@@](C)(F)C5)n4)ncc23)[C@H]1C (single isomer, unassigned) [Compound 189]
8 | ≤ 15 |  | ≤ 10 | CC(C)c1ccc(N2C[C@H](CS(C)(=O)=O)[C@H]2C)c2cnc(Nc3ccnc(N4CC[C@@H](O)[C@@H](F)C4)n3)cc12 [Compound 62, (3S,4R)-3-fluoro-1-(4-((5-isopropyl-8-((2R,3S)-2-methyl-3-((methylsulfonyl)methyl)azetidin-1-yl)isoquinolin-3-yl)amino)pyrimidin-2-yl)piperidin-4-ol]
9 | ≤ 15 |  | ≤ 10 | CC(C)c1cnc(N2C[C@H](CS(C)(=O)=O)[C@H]2C)c2cnc(Nc3ccnc(N4CC[C@](C)(O)[C@H](F)C4)n3)cc12 (single isomer, unassigned) [Compound 135]
10 | ≤ 15 |  | 30.1 to 50 | CCOc1cnc(N2CC(CS(C)(=O)=O)C2)c2cnc(Nc3ccnc(N4CC[C@@H](O)[C@@](C)(F)C4)n3)cc12 (single isomer, unassigned) [Compound 80]
11 | ≤ 15 |  | ≤ 10 | CC(C)c1ccc(N2C[C@H](CS(C)(=O)=O)[C@H]2C)c2cnc(Nc3ccnc(N4CC[C@@H](OC[C@H](C)O)[C@@H](F)C4)n3)cc12 (single isomer, unassigned) [Compound 247, (2S)-1-{[(3S,4R)-3-fluoro-1-[4-({8-[(2R,3S)-3-(methanesulfonylmethyl)-2-methylazetidin-1-yl]-5-(propan-2-yl)isoquinolin-3-yl}amino)pyrimidin-2-yl]piperidin-4-yl]oxy}propan-2-ol or (2R)-1-{[(3S,4R)-3-fluoro-1-[4-({8-[(2R,3S)-3-(methanesulfonylmethyl)-2-methylazetidin-1-yl]-5-(propan-2-yl)isoquinolin-3-yl}amino)pyrimidin-2-yl]piperidin-4-yl]oxy}propan-2-ol]
12 | ≤ 15 |  | ≤ 10 | CO[C@@H]1CCN(c2nccc(Nc3cc4c(F)ccc(N5C[C@H](CS(C)(=O)=O)[C@H]5C)c4cn3)n2)C[C@@H]1F [Compound 36, 5-fluoro-N-{2-[(3S,4R)-3-fluoro-4-methoxypiperidin-1-yl]pyrimidin-4-yl}-8-[(2R,3S)-3-(methanesulfonylmethyl)-2-methylazetidin-1-yl]isoquinolin-3-amine]
13 | ≤ 15 |  | ≤ 10 | CO[C@H]1CCN(c2nccc(Nc3cc4c(C(C)C)ccc(N5C[C@H](CS(C)(=O)=O)[C@H]5C)c4cn3)n2)C[C@H]1OCCO (single isomer, unassigned) [Compound 295, 2-{[(3R,4S)-1-[4-({8-[(2R,3S)-3-(methanesulfonylmethyl)-2-methylazetidin-1-yl]-5-(propan-2-yl)isoquinolin-3-yl}amino)pyrimidin-2-yl]-4-methoxypiperidin-3-yl]oxy}ethan-1-ol or 2-{[(3S,4R)-1-[4-({8-[(2R,3S)-3-(methanesulfonylmethyl)-2-methylazetidin-1-yl]-5-(propan-2-yl)isoquinolin-3-yl}amino)pyrimidin-2-yl]-4-methoxypiperidin-3-yl]oxy}ethan-1-ol]
14 | ≤ 15 |  | 30.1 to 50 | CCS(=O)(=O)CC1CN(c2ccc(C)c3cc(Nc4ccnc(N5CC[C@@H](O)[C@@](C)(F)C5)n4)ncc23)C1 (single isomer, unassigned) [Compound 25]
15 | 15.1 to 20 |  | 30.1 to 50 | CCS(=O)(=O)CC1CN(c2ncc(C(C)C)c3cc(Nc4ccnc(N5CCN[C@@H](C(F)F)C5)n4)ncc23)C1 (single isomer, unassigned) [Compound 160, N-{2-[(3R)-3-(difluoromethyl)piperazin-1-yl]pyrimidin-4-yl}-8-{3-[(ethanesulfonyl)methyl]azetidin-1-yl}-5-(propan-2-yl)-2,7-naphthyridin-3-amine or N-{2-[(3S)-3-(difluoromethyl)piperazin-1-yl]pyrimidin-4-yl}-8-{3-[(ethanesulfonyl)methyl]azetidin-1-yl}-5-(propan-2-yl)-2,7-naphthyridin-3-amine]
16 | ≤ 15 |  | 30.1 to 50 | CC(C)c1nnc(N2CC(CS(C)(=O)=O)C2)c2cnc(Nc3ccnc(N4CC[C@]5(CCO5)C(F)(F)C4)n3)cc12 (single isomer, unassigned) [Compound 209, (S)-N-(2-(5,5-difluoro-1-oxa-7-azaspiro[3.5]nonan-7-yl)pyrimidin-4-yl)-1-isopropyl-4-(3-((methylsulfonyl)methyl)azetidin-1-yl)pyrido[3,4-d]pyridazin-7-amine or (R)-N-(2-(5,5-difluoro-1-oxa-7-azaspiro[3.5]nonan-7-yl)pyrimidin-4-yl)-1-isopropyl-4-(3-((methylsulfonyl)methyl)azetidin-1-yl)pyrido[3,4-d]pyridazin-7-amine]
17 | 30.1 to 100 |  | 10.1 to 20 | CCS(=O)(=O)C[C@H]1CN(c2ccc(C(C)C)c3cc(Nc4ccnc(N5CC[C@](C)(O)[C@H](F)C5)n4)ncc23)[C@@H]1C (single isomer, unassigned) [Compound 187]
18 | 15.1 to 20 | 30.1 to 50 |  | CCS(=N)(=O)CC1CN(c2ccc(C(C)C)c3cc(Nc4ccnc(N5CCC(OC)C(F)C5)n4)ncc23)C1 (single isomer, unassigned) [Compound 275, (S)-ethyl({1-[3-({2-[(3R,4S)-3-fluoro-4-methoxypiperidin-1-yl]pyrimidin-4-yl}amino)-5-(propan-2-yl)isoquinolin-8-yl]azetidin-3-yl}methyl)imino-λ^6-sulfanone or (R)-ethyl({1-[3-({2-[(3R,4S)-3-fluoro-4-methoxypiperidin-1-yl]pyrimidin-4-yl}amino)-5-(propan-2-yl)isoquinolin-8-yl]azetidin-3-yl}methyl)imino-λ^6-sulfanone]
